US20220323441A1, “THERAPEUTIC FOR GOUT OR HYPERURICEMIA” (Nippon Chemiphar Co., Ltd., priority 2019, published 2022)
Like-named read-outs stand apart in the source and are kept apart here.

Legend:
[1] = Particle size distribution of amorphous Compound 14 (laser diffraction); assay type: physicochemical; settings: amorphous Compound 14, spray dried; dispersed in 0.2% Aerosol OT aqueous solution
Method: A volume average particle size (D50) of the obtained amorphous Compound 14 was measured with a Shimadzu laser diffraction type particle size distribution measuring device SALD-2200 using a dispersion obtained by adding about 2 mg of a sample to a 0.2% Aerosol OT aqueous solution and irradiating the solution with ultrasonic waves for 30 seconds for dispersion. Shimadzu WingSALD-2200 version 1.02 software was used for data collection and analysis. […] The volume average particle size (D50) of amorphous Compound 14 obtained from the particle size distribution was 2.949 μm.

serum uric acid level [2] = assay: Example 1, action of lowering serum uric acid level in healthy adult males; assay type: in vivo
Text: The effect of gradually lowering the blood uric acid level which is achieved by administering the pharmaceutical composition provided by the present invention may be confirmed, for example, when a maximum rate of decrease in a blood uric acid level on the first day of the administration ([(pre-administration uric acid level−minimum post-administration uric acid level on first day of administration)/pre-administration uric acid level]×100) is about 35% or less (for example, 1 to 35% decrease, 10 to 30% decrease, 10 to 25% decrease, 10 to 20% decrease, or 15 to 25% decrease); and/or the maximum rate of decrease in a blood uric acid level on the seventh day of the administration ([(pre-administration uric acid level−minimum post-administration uric acid level on the seventh day of administration)/pre-administration uric acid level]×100) is about 55% or less (for example, 1 to 55% decrease, 10 to 50% decrease, 15 to 45% decrease, 20 to 45% decrease, 20 to 40% decrease, or 20 to 35% decrease), the maximum rates of decrease being determined by continuously administering the pharmaceutical composition provided by the present invention to a healthy adult (for example, a male) for 7 days and measuring the blood uric acid levels before and after the administration.
The blood uric acid level (blood uric acid concentration) may be measured by a known uricase-peroxidase method.
80 mg of Compound 14 was repeatedly administered to 6 healthy adult males once daily for 7 days using solid dispersion capsules of Formulation Example 1, and the action of lowering a serum uric acid level was examined. For comparative reference, the results are shown in FIG. 9 together with the result of a case described in Non Patent Literature 3 in which febuxostat (40 mg) was used.

serum uric acid level [3] = settings: febuxostat 40 mg; about 15 hours after the administration; cited from earlier work

| SMILES | volume average particle size (D50) [1] [μm] | course of serum uric acid level throughout the administration period (serum uric acid level [2]; 20 mg once daily for 7 days, solid dispersion capsules of Formulation Example 1) | course of serum uric acid level throughout the administration period (serum uric acid level [2]; 40 mg once daily for 7 days, capsules containing micronized Compound 14) | course of serum uric acid level throughout the administration period (serum uric acid level [2]; 80 mg once daily for 7 days, solid dispersion capsules of Formulation Example 1) | maximum rate of decrease in a blood uric acid level on the seventh day (serum uric acid level [2]; 80 mg once daily for 7 days, solid dispersion capsules of Formulation Example 1, about 8 hours after the administration) | maximum rate of decrease in a blood uric acid level on the first day of the administration (serum uric acid level [2]; 80 mg once daily, solid dispersion capsules of Formulation Example 1, 6 healthy adult males, at 12 hours after the administration) | maximum rate of decrease in a blood uric acid level on the first day of the administration (serum uric acid level [3]) |
| --- | --- | --- | --- | --- | --- | --- | --- |
| N#Cc1cc(-c2nc3c(O)ncnc3s2)ccc1Oc1ccccc1 [Compound 14, 2-(3-Cyano-4-phenoxyphenyl)-7-hydroxythiazolo[5,4-d]pyrimidine] | 2.949 | gradually decreased over time | gradually decreased over time | gradually decreased over time | about 30% | about 17% |  |
| Cc1nc(-c2ccc(OCC(C)C)c(C#N)c2)sc1C(=O)O [febuxostat] |  |  |  |  |  |  | about 35% |
